The source of these data is patent publication US20120302740A1, “VINCRISTINE IMMUNOASSAY” (SALADAX BIOMEDICAL INC., priority 2010, published 2012).

Series [1] relates to monoclonal antibody to vincristine 1D12.10. As to the kind of experiment: Indirect competitive microtiter plate immunoassay (ELISA), monoclonal antibody 1D12.10. The format is binding, mouse. To be noted: relative to vincristine, vincristine [5]-BSA coated plates. On the procedure: (§1) The ELISA method for measuring vincristine concentrations was performed in polystyrene microtiter plates (Nunc MaxiSorp F8 Immunomodules) optimized for protein binding and containing 96 wells per plate. Each well was coated with vincristine [5]-BSA conjugate (prepared as in Example 5) by adding 300 μl, of vincristine [5]-BSA conjugate at 10 μg/mL in 0.05M sodium carbonate, pH 9.6, and incubating for three hours at room temperature. The wells were washed with 0.05M sodium carbonate, pH 9.6 and then were blocked with 375 μL of 5% sucrose, 0.2% sodium caseinate solution for 30 minutes at room temperature. After removal of the blocking solution the plates were dried at 37° C. overnight.
(§2) This procedure is to find the dilution of antibody or anti-serum to be tested for displacement as in Example 9. The ELISA method for screening vincristine antibodies (produced in Example 6) was performed with the microtiter plates that were sensitized with vincristine-BSA conjugate prepared in Example 7. The antibody screening assay was performed by diluting the murine serum from test bleeds (as in Example 6a) containing polyclonal vincristine antibodies to 1:2,000, 1:6,000, 1:18,000 and 1:54,000 (volume/volume) in phosphate buffered saline containing 0.1% BSA and 0.01% thimerosal. […] (volume/volume) in phosphate buffered saline containing 0.1% BSA and 0.01% thimerosal. To each well of vincristine-BSA sensitized wells (prepared in Example 7)50 μL phosphate buffered saline containing 0.1% BSA and 0.01% thimerosal and 50 μL of diluted antibody were added and incubated for 10 minutes at room temperature with shaking. During this incubation antibody binds to the vincristine-BSA conjugate passively absorbed in the wells (Example 7). The wells of the plates were washed three times with 0.02 M TRIS, 0.9% NaCl, 0.5% Tween-80 and 0.001% thimerosal, pH 7.8 to remove any unbound antibody. […] Following the incubation for color development, 50 μL of stop solution (1.5% sodium fluoride in diH2O) was added to each well to stop the color development and after 10 seconds of shaking the absorbance was determined at 650 nm (Molecular Devices Plate Reader). The amount of antibody in a well was proportional to the absorbance measured and was expressed as the dilution (titer) resulting in an absorbance of 1.5. Titers were determined by graphing antibody dilution of the antibody measured (x-axis) vs. absorbance 650 nm (y-axis) and interpolating the titer at an absorbance of 1.5. The titer which produced absorbance of 1.5 determined the concentration (dilution) of antibody used in the indirect competitive microtiter plate assay described in Example 9. […]

Series [2] has as its system monoclonal antibody to vincristine 8B6.23.23. As to the kind of experiment: Indirect competitive microtiter plate immunoassay (ELISA), monoclonal antibody 8B6.23.23. To be noted: relative to vincristine, vincristine [5]-BSA coated plates. The format is binding, mouse. On the procedure: as §1, §2
Series [3] has as its system antibodies to vincristine. As to the kind of experiment: Indirect competitive microtiter plate immunoassay (ELISA), pool of antibodies to vincristine. The format is binding, mouse. The note with it: for reactivity of the antibodies of this invention (in words): summary of Tables I and II. On the procedure: as §1
This procedure is to find the dilution of antibody or anti-serum to be tested for displacement as in Example 9. The ELISA method for screening vincristine antibodies (produced in Example 6) was performed with the microtiter plates that were sensitized with vincristine-BSA conjugate prepared in Example 7. The antibody screening assay was performed by diluting the murine serum from test bleeds (as in Example 6a) containing polyclonal vincristine antibodies to 1:2,000, 1:6,000, 1:18,000 and 1:54,000 (volume/volume) in phosphate buffered saline containing 0.1% BSA and 0.01% thimerosal. […] (volume/volume) in phosphate buffered saline containing 0.1% BSA and 0.01% thimerosal. To each well of vincristine-BSA sensitized wells (prepared in Example 7)50 μL phosphate buffered saline containing 0.1% BSA and 0.01% thimerosal and 50 μL of diluted antibody were added and incubated for 10 minutes at room temperature with shaking. During this incubation antibody binds to the vincristine-BSA conjugate passively absorbed in the wells (Example 7). The wells of the plates were washed three times with 0.02 M TRIS, 0.9% NaCl, 0.5% Tween-80 and 0.001% thimerosal, pH 7.8 to remove any unbound antibody. […] After an incubation of 10 minutes at room temperature with shaking, during which the goat anti-mouse antibody-HRP enzyme conjugate binds to vincristine antibodies in the wells, the plates were again washed three times to remove unbound goat anti-mouse antibody-HRP enzyme conjugate. To develop a measurable color in the wells washing was followed by the addition of 100 μL of TMB (TMB Substrate, BioFx), the substrate for HRP, to develop color during a 10 minute incubation with shaking at room temperature. Following the incubation for color development, 50 μL of stop solution (1.5% sodium fluoride in diH2O) was added to each well to stop the color development and after 10 seconds of shaking the absorbance was determined at 650 nm (Molecular Devices Plate Reader). The amount of antibody in a well was proportional to the absorbance measured and was expressed as the dilution (titer) resulting in an absorbance of 1.5. Titers were determined by graphing antibody dilution of the antibody measured (x-axis) vs. absorbance 650 nm (y-axis) and interpolating the titer at an absorbance of 1.5. The titer which produced absorbance of 1.5 determined the concentration (dilution) of antibody used in the indirect competitive microtiter plate assay described in Example 9.
Indirect Competitive Microtiter Plate Immunoassay Procedure Determining IC50 and Cross-Reactivity for Antibodies to Vincristine
The ELISA method for determining IC50 values and cross-reactivity was performed with the microtiter plates that were sensitized with vincristine [5]-BSA conjugates as described in Example 7. […]

The conditions of series [4]: cited from earlier work.
Series [5] concerns polyclonal antibodies to vincristine, bleed G1M1. As to the kind of experiment: Indirect competitive microtiter plate immunoassay (ELISA), polyclonal antiserum bleed G1M1. The format is binding, mouse. The note with it: relative to vincristine, vincristine [5]-BSA coated plates. How it is done: as §1
(§3) This procedure is to find the dilution of antibody or anti-serum to be tested for displacement as in Example 9. […] Following the incubation for color development, 50 μL of stop solution (1.5% sodium fluoride in diH2O) was added to each well to stop the color development and after 10 seconds of shaking the absorbance was determined at 650 nm (Molecular Devices Plate Reader). The amount of antibody in a well was proportional to the absorbance measured and was expressed as the dilution (titer) resulting in an absorbance of 1.5. Titers were determined by graphing antibody dilution of the antibody measured (x-axis) vs. absorbance 650 nm (y-axis) and interpolating the titer at an absorbance of 1.5. […]

Series [6] concerns polyclonal antibodies to vincristine, bleed G1M3. The experiment in a line: Indirect competitive microtiter plate immunoassay (ELISA), polyclonal antiserum bleed G1M3. The format is binding, mouse. The note with it: relative to vincristine, vincristine [5]-BSA coated plates. How it is done: as §1, §3
Series [7] deals with polyclonal antibodies to vincristine, bleed G2M1. As to the kind of experiment: Indirect competitive microtiter plate immunoassay (ELISA), polyclonal antiserum bleed G2M1. The format is binding, mouse. To be noted: relative to vincristine, vincristine [5]-BSA coated plates. On the procedure:
as §1, §3

Series [8] deals with polyclonal antibodies to vincristine, bleed G2M5. The experiment in a line: Indirect competitive microtiter plate immunoassay (ELISA), polyclonal antiserum bleed G2M5. The format is binding, mouse. To be noted: relative to vincristine, vincristine [5]-BSA coated plates. How it is done: as §1, §3
For series [9], the system named is polyclonal antibodies to vincristine, bleed G1M4. As to the kind of experiment: Indirect competitive microtiter plate immunoassay (ELISA), polyclonal antiserum bleed G1M4. The format is binding, mouse. To be noted: relative to vincristine, vincristine [5]-BSA coated plates. How it is done: as §1, §3
Setting [10] is: single one minute intravenous injection of 1-2 mg per m^2 body surface area.

Counter-ions that a name gives are not always drawn.

As for vindesine, the “Cross-reactivity of competitive immunoassay” value (from here on “Cross-reactivity”) in [1] and in [2] was less than 0.1% throughout. Further, the “reactivity of the antibodies of this invention (in words)” value (shortened to “reactivity … (in words)”) in [3] is “substantially non-cross-reactive”.

Consider `CC[C@]1(O)C[C@H]2CN(CCc3c([nH]c4ccccc34)[C@@](C(=O)OC)(c3cc4c(cc3OC)N(C=O)[C@H]3[C@@](O)(C(=O)OC)[C@H](OC(C)=O)[C@]5(CC)C=CCN6CC[C@]43[C@@H]65)C2)C1` [Vincristine sulfate], for which, in series [4] (setting [10]), the elimination half-life is 19 to 155 h and the “time to distribution into tissue” value is no more than 10 min.

For `CC[C@]1(O)C[C@@H]2CN(CCc3c([nH]c4ccccc34)[C@@](C(=O)OC)(c3cc4c(cc3OC)N(C)[C@H]3[C@@](O)(C(=O)OC)[C@H](OC(C)=O)[C@]5(CC)C=CCN6CC[C@]43[C@@H]65)C2)C1` [Vinblastine, vinblastine], the “Cross-reactivity” value in series [5] was less than 0.9%; in series [6] it was less than 3.9%; in [7] it was less than 3.4%; in series [8] it was less than 2%; in series [9] it was less than 4.1%; in [1], less than 0.1%. Moreover, the “Cross-reactivity” value in [2] is reported as 0.3%. Also, the “percent cross-reactivities relative to vincristine” value in [3] (measured with this pool of antibodies) is recorded as “less than 5%”. The “reactivity … (in words)” value in series [3] is on record as “substantially non-cross-reactive”.

On to `[H][C@@]12C[N@@](CCc3c([nH]c4ccccc34)[C@@](C(=O)OC)(c3cc4c(cc3OC)N(C=O)[C@]3([H])[C@]45CC[N@@]4CC=C[C@@](CC)([C@@H](OC(C)=O)[C@]3(O)C(=O)OC)[C@]45[H])C1)C[C@](O)(CC)C2` [Vincristine, vincristine], for which the “Cross-reactivity” value in series [5], in series [6], in [7], in [8], in series [9] and in [1] was 100% throughout. For the same compound, the “Cross-reactivity” value in series [2] stood at 100%. For the same compound, the “reactivity … (in words)” value in series [3] is reported as “substantially selectively reactive”. Besides, the “difference in total dose exposure (inter-/intra-patient variability)” value in series [4] (Crom et al., 1994) is “up to 40 fold”. Further, the “interpatient variability in clearance” value in series [4] (Gidding et al., 1999, Groninger et al., 2002) is reported as “up to 25 fold”.

As to `CCC1=C[C@@H]2CN(C1)Cc1c([nH]c3ccccc13)[C@@](C(=O)OC)(c1cc3c(cc1OC)N(C)[C@H]1[C@@](O)(C(=O)OC)[C@H](OC(C)=O)[C@]4(CC)C=CCN5CC[C@]31[C@@H]54)C2` [Vinorelbine, vinorelbine], the “Cross-reactivity” value in [1] was less than 0.1%; in series [2], 0.7%. Moreover, the “reactivity … (in words)” value in series [3] was “substantially non-cross-reactive”.
